Square brackets hold non-standard residues; d marks the D form. Peptide text beside a SMILES is read from it. * marks the point of attachment. Sta = CC(C)C[C@H](N)[C@@H](O)CC(=O)O; Isovaleryl = CC(C)CC(=O)*

In this experiment the target is T1, Amuc_1434* (Akkermansia muciniphila, UniProt B2UKY3).
T1 construct: recombinant, 6xHis-tag (N-terminal as printed; Pet25b-His vector), E. coli Rosetta (DE3), Ni-Sepharose; ~50 kDa on SDS-PAGE; b10 says amplified from genomic DNA, b49 says gene synthesized
T1 sequence (B2UKY3 22-326): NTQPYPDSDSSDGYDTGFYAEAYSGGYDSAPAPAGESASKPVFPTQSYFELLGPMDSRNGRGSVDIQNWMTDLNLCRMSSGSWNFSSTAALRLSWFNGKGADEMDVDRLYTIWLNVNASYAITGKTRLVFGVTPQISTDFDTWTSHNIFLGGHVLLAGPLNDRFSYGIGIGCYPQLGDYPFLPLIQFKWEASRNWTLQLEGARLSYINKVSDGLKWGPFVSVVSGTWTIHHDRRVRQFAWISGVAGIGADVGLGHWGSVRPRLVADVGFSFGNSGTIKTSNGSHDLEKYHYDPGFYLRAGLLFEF
Put plainly: hemoglobin hydrolysis, UV absorbance at […] nm. Type of experiment: biochemical. The following applies: read-out: Relative Activity (%).

With `CC(C)CC(=O)N[C@H](C(=O)N[C@H](C(=O)N[C@@H](CC(C)C)[C@@H](O)CC(=O)N[C@@H](C)C(=O)N[C@@H](CC(C)C)[C@@H](O)CC(=O)O)C(C)C)C(C)C` [pepstatin A] (Isovaleryl-VV[Sta]A[Sta]-OH), the activity at 20 µM is 40.1 ± 6.7%.
Take `CC(C)C[C@H](NC(=O)[C@@H]1O[C@H]1C(=O)O)C(=O)NCCCCN=C(N)N` [E-64]: the activity at 10 µM was determined as 88.5 ± 4.7%.

These data come from article PMC6982040, “A Purified Aspartic Protease from Akkermansia Muciniphila Plays an Important Role in Degrading Muc2” (International Journal of Molecular Sciences, 2019).
